Paper PMC5352234 (International Journal of Nanomedicine, 2017)
Like-named read-outs stand apart in the source and are kept apart here. Blank lines part the entries; values can stand above or below the substance they belong to.

Tests used:
PKA [1] = target: T1, PKA (Bos taurus, UniProt P00517); experiment: AuNPs/Fc-peptide electrochemical; settings: thiolated IP20/MCH gold electrode; Fc-peptide 4 µM or AuNPs 2.4 nM
PKA [2] = target: T1, PKA; settings: cited from earlier work
[3] = Aggregation of unmodified AuNPs by peptide; assay type: physicochemical; settings: AuNPs 2.4 nM, IP20 5 µM, PKA (where present) 500 U/mL; UV-Vis, TEM
[4] = substrate/ATP, Zr^4+-DNA-AuNPs network, ref [22]
[5] = substrate/ATP, Biotinylated antiphosphoserine antibody/SA-AuNPs-HRP, ref [19]
[6] = substrate/ATP-S, AuNPs/MWNTs, ref [30]
[7] = substrate/ATP, Fe^3+/H2O2, ref [20]

DPV signal/peak, single component only (Fc-peptide alone or AuNPs alone) (PKA [1]): no DPV peak was observed
Substance: FcCH2CO-RTGRRNAIHD [Fc-peptide]

Substance: CLRRASLG
Detection limit (PKA [2]; [4]): 30 mU/mL | Linear range (PKA [2]; [4]): 30–40,000 mU/mL

Substance: RTGRRNAIHD
effect on AuNPs aggregation / color change [3]: responsible for triggering the aggregation of AuNPs

Substance: Fc-LRRASLG
Detection limit (PKA [2]; substrate/ATP, bis(Zn^2+-dipicolylamine), ref [21]): 100 mU/mL

Substance: CALRRASLGW
Detection limit (PKA [2]; [5]): 1 mU/mL | Linear range (PKA [2]; [5]): 1–10 mU/mL

Substance: CLRRASIG
Detection limit (PKA [2]; [6]): 90 mU/mL | Linear range (PKA [2]; [6]): 100–1,000 mU/mL

Substance: LRRASLG
Detection limit (PKA [2]; substrate/biotin-ATP, SA-AuNPs, ref [27]): 10,000 mU/mL

Substance: LRRASLGGGGC
Detection limit (PKA [2]; [7]): 100 mU/mL | Linear range (PKA [2]; [7]): 100–50,000 mU/mL

Substance: CGGALRRASLG
Linear range (PKA [2]; substrate/ATP, Phos-tag-biotin/avidin-HRP, ref [23]): 500–25,000 mU/mL
